Eleven molecules from PubChem BioAssay (NCI) can be followed below.

Some test systems named below: OVCAR-4 ovarian; HOP-62 NSCLC; HCT-15 colon; IGROV1 ovarian; NCI-H460 lung; OVCAR-5 ovarian; NCI-H226 lung; SK-MEL-2 melanoma; MOLT-4 leukemia; UACC-257 melanoma.
What all share (assay): growth of human tumour cells (NCI), 48 h

Molecules are shown by their SMILES.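 Compound exposure: 48 hours, 5 concentrations, 96-well plates. The concentration for 50% growth inhibition is given as GI50. Definition used: TGI = concentration required for complete inhibition of growth.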

Regarding `N#Cc1ccc(Oc2nccc(-c3c(-c4ccc(F)cc4)ncn3C3CCNCC3)n2)cc1`, the GI50 was greater than 25 µM with OVCAR-4 ovarian; greater than 25 µM in the assay with HOP-62 NSCLC; greater than 14.8 µM with HCT-15 colon; greater than 25 µM with IGROV1 ovarian; 14 µM in the assay on NCI-H460 lung; greater than 25 µM in the assay with OVCAR-5 ovarian. Also, the GI50 is greater than 25 µM in the assay with NCI-H226 lung, greater than 25 µM in the assay with SK-MEL-2 melanoma, 8.01 µM in the assay on MOLT-4 leukemia and greater than 22.7 µM with UACC-257 melanoma. Also, the TGI with OVCAR-4 ovarian, in the assay with HOP-62 NSCLC, with HCT-15 colon, with IGROV1 ovarian, with NCI-H460 lung and with OVCAR-5 ovarian was greater than 25 µM throughout. Besides, the TGI in the assay on NCI-H226 lung was greater than 25 µM; in the assay on SK-MEL-2 melanoma, greater than 25 µM; with MOLT-4 leukemia it was 20.8 µM; in the assay on UACC-257 melanoma it was greater than 25 µM.
With `COCCc1c(C)c(C#N)c2n(C)c3ccccc3n2c1=O`, the TGI in the assay with OVCAR-4 ovarian, with HOP-62 NSCLC, in the assay on HCT-15 colon, in the assay on IGROV1 ovarian, in the assay on NCI-H460 lung and in the assay with OVCAR-5 ovarian was greater than 10 µM in each case. The TGI in the assay on NCI-H226 lung, in the assay with SK-MEL-2 melanoma, in the assay with MOLT-4 leukemia and with UACC-257 melanoma was greater than 10 µM each time.
Consider `CCCCCCN(CCCCCC)CCCNc1nccc2ccccc12`, for which the GI50 in the assay with OVCAR-4 ovarian is 2.09 µM; with HOP-62 NSCLC it was 1.46 µM; in the assay with HCT-15 colon, 1.41 µM; with IGROV1 ovarian it was 1.89 µM; in the assay with NCI-H460 lung it was 1.4 µM; in the assay on OVCAR-5 ovarian it was 1.63 µM. Further, the GI50 in the assay on NCI-H226 lung is 1.61 µM; with SK-MEL-2 melanoma, 1.8 µM; in the assay on MOLT-4 leukemia, 2.56 µM; in the assay on UACC-257 melanoma it was 1.84 µM. Also, the TGI in the assay with OVCAR-4 ovarian was determined as 7.72 µM; with HOP-62 NSCLC it was 3.41 µM; in the assay with HCT-15 colon, 3.21 µM; with IGROV1 ovarian, 4.75 µM; in the assay on NCI-H460 lung, 2.88 µM; in the assay on OVCAR-5 ovarian it was 4.3 µM. Further, the TGI in the assay on NCI-H226 lung was determined as 3.5 µM; with SK-MEL-2 melanoma, 3.41 µM; in the assay on MOLT-4 leukemia it was 7.71 µM; with UACC-257 melanoma, 3.54 µM.
Turning to `COc1cccc(Nc2nc(NNC(=O)Cc3ccccc3)nc(NNC(=O)c3ccncc3)n2)c1`, the GI50 in the assay with OVCAR-4 ovarian, with HOP-62 NSCLC, in the assay with HCT-15 colon, in the assay on IGROV1 ovarian, with NCI-H460 lung and in the assay with UACC-257 melanoma was greater than 100 µM throughout. The TGI in the assay on OVCAR-4 ovarian, with HOP-62 NSCLC, in the assay on HCT-15 colon, in the assay on IGROV1 ovarian, in the assay on NCI-H460 lung and in the assay with OVCAR-5 ovarian was greater than 100 µM throughout. The TGI in the assay on NCI-H226 lung, with SK-MEL-2 melanoma, with MOLT-4 leukemia and in the assay with UACC-257 melanoma was greater than 100 µM in each case.
Regarding `O=C1Cc2cc(CCn3ccnc3)c(Cl)cc2N1`, the GI50 in the assay with OVCAR-4 ovarian is 45 µM; with HOP-62 NSCLC, 33.2 µM; in the assay on HCT-15 colon, 7.07 µM; in the assay on IGROV1 ovarian, greater than 100 µM; in the assay on NCI-H460 lung, 16.1 µM; in the assay on OVCAR-5 ovarian, 44.8 µM. The GI50 was greater than 100 µM with NCI-H226 lung, 5.78 µM in the assay on SK-MEL-2 melanoma, 56.7 µM with MOLT-4 leukemia and 5.65 µM in the assay on UACC-257 melanoma. Moreover, the TGI in the assay on OVCAR-4 ovarian, in the assay on HOP-62 NSCLC, in the assay on HCT-15 colon, with IGROV1 ovarian, in the assay on NCI-H460 lung and with OVCAR-5 ovarian was greater than 100 µM each time. Besides, the TGI with NCI-H226 lung was greater than 100 µM; in the assay with SK-MEL-2 melanoma it was 73.6 µM; in the assay with MOLT-4 leukemia, greater than 100 µM; in the assay on UACC-257 melanoma, greater than 100 µM.
Turning to `O=C(CCCn1c2c(sc3ncccc32)c(=O)n2nnc(-c3ccccc3)c12)NCCc1cnc[nH]1`, the GI50 was 15.4 µM with OVCAR-4 ovarian; 16.5 µM in the assay on HOP-62 NSCLC; 5.8 µM in the assay on HCT-15 colon; 9.54 µM in the assay with IGROV1 ovarian; 3.66 µM with NCI-H460 lung; 11.6 µM with OVCAR-5 ovarian. The GI50 with NCI-H226 lung was 11.7 µM; in the assay on SK-MEL-2 melanoma it was 17.6 µM; with MOLT-4 leukemia, 2.22 µM; with UACC-257 melanoma it was 18.3 µM. Besides, the TGI in the assay on OVCAR-4 ovarian is 32.2 µM; with HOP-62 NSCLC, 32 µM; in the assay with HCT-15 colon it was greater than 100 µM; in the assay with IGROV1 ovarian, 27.6 µM; in the assay with NCI-H460 lung, 13.1 µM; in the assay with OVCAR-5 ovarian, 32.7 µM. In addition, the TGI in the assay on NCI-H226 lung turned out to be 29.3 µM; in the assay on SK-MEL-2 melanoma it was 38.9 µM; in the assay with MOLT-4 leukemia it was 24.2 µM; in the assay on UACC-257 melanoma, 35.6 µM.
In the case of `OC(c1ccccc1)(c1ccccc1)c1ccccn1`, the TGI in the assay with OVCAR-4 ovarian, in the assay with HOP-62 NSCLC, in the assay on HCT-15 colon, in the assay on IGROV1 ovarian, in the assay on NCI-H460 lung and in the assay on OVCAR-5 ovarian was greater than 100 µM in each case. In addition, the TGI with NCI-H226 lung, in the assay on SK-MEL-2 melanoma, with MOLT-4 leukemia and in the assay on UACC-257 melanoma was greater than 100 µM throughout.
Take `CCCOc1ccc(/C(Cl)=C(\C=O)c2ccc(OC)c(OC)c2)cc1OCCC`: the TGI in the assay on OVCAR-4 ovarian was greater than 100 µM; in the assay with HOP-62 NSCLC it was greater than 100 µM; in the assay with HCT-15 colon, 32.8 µM; with IGROV1 ovarian, greater than 100 µM; with NCI-H460 lung it was 28.7 µM; in the assay on OVCAR-5 ovarian it was greater than 100 µM. For the same molecule, the TGI in the assay on NCI-H226 lung is 32.4 µM; with SK-MEL-2 melanoma, 32 µM; in the assay with MOLT-4 leukemia, greater than 100 µM; in the assay on UACC-257 melanoma, greater than 100 µM.
Turning to `COC(=O)[C@]12CC[C@@H](C)[C@H](C)[C@@H]1C1=CC[C@@H]3[C@@]4(C)C[C@@H](OC(=O)c5ccco5)[C@H](O)[C@@](C)(CO)[C@@H]4[C@H](O)C[C@@]3(C)[C@]1(C)CC2`, the GI50 in the assay on OVCAR-4 ovarian is 3.41 µM; in the assay with HOP-62 NSCLC, 2.03 µM; in the assay on HCT-15 colon it was 1.84 µM; with IGROV1 ovarian it was 2.42 µM; in the assay on NCI-H460 lung, 1.97 µM; in the assay on OVCAR-5 ovarian, 2.13 µM. For the same molecule, the GI50 in the assay on NCI-H226 lung was 2.3 µM; in the assay with SK-MEL-2 melanoma, 1.97 µM; with MOLT-4 leukemia it was 2.04 µM; in the assay on UACC-257 melanoma, 2.87 µM. Besides, the TGI with OVCAR-4 ovarian was determined as 13.5 µM; in the assay on HOP-62 NSCLC it was 4 µM; in the assay on HCT-15 colon, 3.89 µM; in the assay with IGROV1 ovarian, 6.33 µM; in the assay on NCI-H460 lung it was 3.87 µM; with OVCAR-5 ovarian it was 5.51 µM. Besides, the TGI turned out to be 6.05 µM in the assay on NCI-H226 lung, 4.31 µM in the assay with SK-MEL-2 melanoma, 4.44 µM in the assay with MOLT-4 leukemia and 7.55 µM with UACC-257 melanoma.
With `CCCNc1nc(N(C)O)nc(N(C)O)n1`, the GI50 in the assay on OVCAR-4 ovarian was 2.48 µM; in the assay on HOP-62 NSCLC, 1.82 µM; with HCT-15 colon, 0.504 µM; with IGROV1 ovarian, 2.13 µM; in the assay on NCI-H460 lung, 0.563 µM; in the assay on OVCAR-5 ovarian it was 6.09 µM. In addition, the GI50 in the assay with NCI-H226 lung was 6.49 µM; in the assay on SK-MEL-2 melanoma it was 2.59 µM; in the assay on MOLT-4 leukemia, 0.194 µM; in the assay with UACC-257 melanoma it was 4.13 µM. Also, the TGI is greater than 100 µM in the assay with OVCAR-4 ovarian; 97.6 µM in the assay with HOP-62 NSCLC; greater than 100 µM in the assay on HCT-15 colon; 14.6 µM in the assay with IGROV1 ovarian; greater than 56.8 µM with NCI-H460 lung; greater than 100 µM with OVCAR-5 ovarian. The TGI with NCI-H226 lung is greater than 93.6 µM; in the assay on SK-MEL-2 melanoma it was 7.76 µM; in the assay with MOLT-4 leukemia, greater than 28 µM; in the assay with UACC-257 melanoma, greater than 46.2 µM.
For `O=c1[nH]c(=S)[nH]c2c1sc(=S)n2-c1ccccc1`, the TGI in the assay with OVCAR-4 ovarian, in the assay on HOP-62 NSCLC, with HCT-15 colon, in the assay with IGROV1 ovarian, in the assay with NCI-H460 lung and in the assay with OVCAR-5 ovarian was greater than 100 µM each time. Also, the TGI in the assay on NCI-H226 lung, with SK-MEL-2 melanoma, with MOLT-4 leukemia and in the assay with UACC-257 melanoma was greater than 100 µM in each case.
